Reference: US20160257997A1, “METHODS FOR WHOLE-CELL ANALYSIS OF GRAM-POSITIVE BACTERIA” (AdvanDx, Inc., priority 2009, published 2016)
{Biotin} = biotin label at the PNA N-terminus, attached through the O linker (8-amino-3,6-dioxaoctanoic acid); {PacBlue} = Pacific Blue dye label at the PNA N-terminus, attached through the O linker; {TAMRA} = TAMRA (TAM) fluorescent label at the PNA N-terminus

Assays:
MecA mRNA = assay: PNA FISH of MecA mRNA in permeabilized S. aureus (Examples 1-3); format: cell-based; settings: MRSA 43300, oxacillin-induced; FIG. 1 Slides B-D; Probes 1-5 794 nM combined, Probe 2 750 nM, Probe 6 750 nM
rRNA [1] = assay: PNA FISH with rRNA-directed probes on S. epidermidis cells (Example 3); settings: MRSE 51625 in mixture with MRSA 43300
Procedure: In this example a mixture of MRSA 43300 and MRSE 51625 was prepared and examined using three fluorescent filters as described below. The growth and oxacillin induction of S. aureus cells was performed as described in Example 1. […] S. epidermidis was grown essentially as described for S. aureus in Example 1. Cell fixation and permeabilization of both MRSA 43300 and MRSE 51625 was performed as described in Example 1.
The remainder of the procedure was performed as described in Example 1. These images are of the same section of the slide. In each case, only the fluorescence filter was changed.

rRNA [2] = assay: PNA FISH with rRNA-directed probes on S. aureus cells (Examples 2-3); format: cell-based
Source text: Some (but not all) of the visible colonies in the slides are surrounded by a circle (slide A) or a square (Slide B). This should assist in analysis of the slides where black and white copies of the Figures are provided in lieu of color copies. In Image A-1 and A-2, the same colonies are encircled to simplify the comparison. The conditions for each of the slides examined in FIG. 2, are as follows: • A-1) MRSA 43300, Dual band filter • B-1) MSSA 29213, Dual band filter • A-2) MRSA 43300, FITC filter • B-2) MSSA 29213, FITC filter

MecA = assay: PNA FISH with tyramide signal amplification (Example 4); format: cell-based, S. aureus; settings: MRSA 33591, oxacillin-induced; 500 nM total; streptavidin-HRP, AlexaFluor 594-labeled tyramide; FIG. 4
Procedure: Cell fixation and permeabilization was also performed as described in Example 1 except that prior to hybridization the slides were treated at 80° C. for 5 minutes with 75 μL of TE buffer (Tris-HCl 100 mM, EDTA, 10 mM, pH 8.0). For hybridization, 25 μL of HB** containing five biotin-labeled PNA probes (Probes 11, 12, 13, 14 and 15 (concentration of each probe was 100 nM for a total concentration of 500 nM) was applied on one slide. Another slide was probed with one biotin-labeled, C. albicans—specific rRNA-directed probe (probe 10, concentration 500 nM) in control experiment. Hybridization and washing were performed as described in Example 1. Slides were then processed with reagents commercially available from Molecular Probes (TSA Kit #25, Eugene, Oreg.) according to manufacturer's protocol. Specifically, slide-deposited cells were first incubated 30 min with 0.075 mL of Blocking Buffer (BB) then 30 min with 0.1 mL of streptavidin-HRP diluted in BB. After washing (3×5 min wash) with PBS-Tween, the cells were incubated 10 min with 0.075 mL of AlexaFluor 594-labeled tyramide solution and washed (3×5 min wash) again. A drop of MM and cover slip was then applied on air dried slides and the cells were examined by FM. […]

“TCAATGAGCAAAGGT (all peptide nucleic acid (PNA); fluorescein label, position not given here; listed as Escherichia coli) [Probe 6, Flu-labeled E. coli specific rRNA-directed PNA probe, control]” was tested, and the “fluorescent staining of bacteria (FITC filter)” value (MecA mRNA) was “No signal was observed”.

“TCCTCGTCTGTTCGC (all peptide nucleic acid (PNA), 5' {PacBlue}; peptide nucleic acid FISH probe, chemically synthesized; listed as Staphylococcus epidermidis) [Probe 9]” was tested, and the “fluorescent staining of bacteria (DAPI filter)” value (rRNA [1]; 500 nM, FIG. 3 Image B) was “Blue stained MRSE bacteria are visible”.

“TAM-GCTTCTCGTCCGTTC (all peptide nucleic acid (PNA), 5' {TAMRA}; peptide nucleic acid FISH probe; listed as Staphylococcus aureus) [Probe 8]” was tested, and the “fluorescent staining of bacteria (dual band filter)” value (rRNA [2]; MRSA 43300 and MSSA 29213, 500 nM, FIG. 2 Slides A-1 and B-1) was “Red fluorescent stained bacteria”, the “fluorescent staining of bacteria (dual band filter)” value (rRNA [2]; MRSA 43300 in mixture with MRSE 51625, FIG. 3 Image A) was “red fluorescence” and the “fluorescent staining of bacteria (dual band filter)” value (rRNA [1]; FIG. 3 Image A) was “no TAMRA signal”.

In the case of “AGAGAGCAGCATCCA (all peptide nucleic acid (PNA), 5' {Biotin}; peptide nucleic acid FISH probe, chemically synthesized) [Probe 10, Biotin-labeled C. albicans-specific rRNA-directed PNA probe, control]”, the “fluorescent staining of bacteria after tyramide signal amplification” value (MecA) is reported as “absence of visible bacteria”.
